According to patent US4108726A, “Sarcoidosis test” (Research Corporation, priority 1976, dated 1978):
Where a SMILES comes first, the peptide text is derived from it. The star is where a group is joined. Bz = O=C(c1ccccc1)*

Assays:
[1] = system: L-histidyl-L-leucine peptidase; assay: Hydrolysis of L-histidyl-L-leucine by human serum peptidase, fluorimetric; type: biochemical; settings: estimated from 1/v-1/S plots
Procedure: Hydrolysis of the product L-histidyl-L-leucine was determined fluorimetrically by adding L-histidyl-L-leucine to an assay mixture which contained buffer and serum and was handled as described for the enzyme assays, including a zero time control. Hydrolysis was accompanied by a decrease in fluorescence from that obtained with the initial concentration as determined in the zero time control. The quantity hydrolyzed was determined by multiplying the fraction hydrolyzed (decrease in FI/initial FI) by the initial concentration. No correction was made for the fluorescence of L-histidine since it was only about 8% of the fluorescence of L-histidyl-L-leucine.
The activity of the L-histidyl-L-leucine hydrolyzing activity was measured in several sera under the conditions of the orginal assay (50 μl sera in 125 μl 0.1 M K phosphate-0.3 M NaCl, pH 8.3) using as substrate 0.2 mM L-histidyl-L-leucine, a concentration typically formed in the angiotensin converting enzyme reaction mixture. […] The velocity of the L-histidyl-L-leucine peptidase reaction was determined at varying L-histidyl-L-leucine concentrations. The Km for L-histidyl-L-leucine of the peptidase was estimated from l/.nu.-l/S plots, see Lineweaver, H. and Burk, D. (1934). J. Amer. Chem. Soc. 56, 658, to be 0.16 mM. […]

[2] = system: porcine lung L-histidyl-L-leucine peptidase; settings: Lee, Larue and Wilson 1971; cited from earlier work
[3] = molecular target: serum angiotensin-converting enzyme (Homo sapiens, UniProt P12821); assay: Spectrofluorimetric serum angiotensin converting enzyme assay with hippuryl-L-histidyl-L-leucine substrate; type: biochemical; settings: FIG. 2
Chain of serum angiotensin-converting enzyme (P12821 30-1232): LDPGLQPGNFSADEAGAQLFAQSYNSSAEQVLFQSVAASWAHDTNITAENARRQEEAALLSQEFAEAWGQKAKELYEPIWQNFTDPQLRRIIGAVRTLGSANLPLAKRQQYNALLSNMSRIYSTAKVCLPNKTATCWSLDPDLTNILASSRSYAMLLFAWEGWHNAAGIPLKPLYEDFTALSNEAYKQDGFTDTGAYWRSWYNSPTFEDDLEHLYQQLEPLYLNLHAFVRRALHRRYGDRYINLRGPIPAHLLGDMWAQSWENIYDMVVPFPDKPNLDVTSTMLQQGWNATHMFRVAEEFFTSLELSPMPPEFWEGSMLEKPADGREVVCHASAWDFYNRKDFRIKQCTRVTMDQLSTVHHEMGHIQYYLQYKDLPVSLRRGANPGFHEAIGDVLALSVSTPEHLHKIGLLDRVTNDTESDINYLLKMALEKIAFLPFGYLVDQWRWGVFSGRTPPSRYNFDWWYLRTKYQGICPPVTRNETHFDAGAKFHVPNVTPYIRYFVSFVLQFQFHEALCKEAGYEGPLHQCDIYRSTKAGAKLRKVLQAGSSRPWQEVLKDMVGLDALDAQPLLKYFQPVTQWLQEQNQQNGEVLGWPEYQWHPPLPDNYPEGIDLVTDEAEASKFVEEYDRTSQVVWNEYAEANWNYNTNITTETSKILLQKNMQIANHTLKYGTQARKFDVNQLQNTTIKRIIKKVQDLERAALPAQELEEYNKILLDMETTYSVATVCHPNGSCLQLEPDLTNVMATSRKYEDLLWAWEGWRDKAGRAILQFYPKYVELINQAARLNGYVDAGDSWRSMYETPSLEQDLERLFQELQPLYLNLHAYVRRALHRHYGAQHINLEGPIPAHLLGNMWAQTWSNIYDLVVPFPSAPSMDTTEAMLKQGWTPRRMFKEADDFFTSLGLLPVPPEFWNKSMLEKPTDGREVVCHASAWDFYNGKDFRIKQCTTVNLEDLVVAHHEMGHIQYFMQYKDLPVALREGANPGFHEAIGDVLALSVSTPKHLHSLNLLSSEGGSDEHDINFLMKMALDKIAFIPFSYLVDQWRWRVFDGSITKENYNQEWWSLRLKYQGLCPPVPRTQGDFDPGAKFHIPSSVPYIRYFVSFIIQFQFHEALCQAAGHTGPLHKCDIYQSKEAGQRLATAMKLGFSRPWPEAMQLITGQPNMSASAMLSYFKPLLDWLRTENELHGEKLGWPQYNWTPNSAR
Procedure: Substrate-buffer solution was prepared by mixing buffer, substrate and water at a ratio of 1:1:2.8 (final concentration in the assay mixture; 0.1M K phosphate, pH 8.3, 0.3M NaCl; 5mM hippuryl-L-histidyl-L-leucine).
Ten μl of serum was added to 240 μl of substrate-buffer solution at 37° C. in a 12 × 75 mm test tube tightly covered with Parafilm, mixed with a vortex mixer and incubated for 15 minutes at 37° C. Duplicate reaction mixtures were stopped by addition of 1.45 ml of 0.28 M NaOH and mixing with a vortex mixer. […] In order to keep the blank low, the development of fluorescence should be started as soon as possible after the addition of NaOH.
One hundred μl of o-phthaldialdehyde reagent was added to each tube which was mixed with a vortex mixer. […] The fluorescence was read in a 1 cm rectangular fluorescence cuvette in a Perkin-Elmer MPF-4 fluorimeter with 8 mm entrance and exit slits and a 7.5 V energy output between 30 and 90 minutes after addition of HCl, during which time it was stable. The excitation wavelength was 360 nm and the emission fluorescence wavelength was 500 nm.
Enzyme activity in nmoles L-histidyl-L-leucine/min/ml serum was calculated by two methods. The first is applicable for ratios of up to 2 of corrected assay/standard fluorescence. […]

[4] = Apparent hydrolysis of hippuryl-L-histidyl-L-leucine in NaOH; type: physicochemical; settings: 30 minutes between NaOH addition and fluorescence development
Procedure: Ten μl of serum was added to 240 μl of substrate-buffer solution at 37° C. in a 12 × 75 mm test tube tightly covered with Parafilm, mixed with a vortex mixer and incubated for 15 minutes at 37° C. Duplicate reaction mixtures were stopped by addition of 1.45 ml of 0.28 M NaOH and mixing with a vortex mixer. A substrate-buffer blank was similarly treated at the same time except that enzyme was added immediately after NaOH, and was an important control for the slow breakdown of hippuryl-L-histidine-L-leucine in NaOH. In order to keep the blank low, the development of fluorescence should be started as soon as possible after the addition of NaOH.
When large quantities of enzyme were used, this effect was small compared to the total fluorescence developed. However, the increase in fluorescence intensity of the blank in 30 minutes was equivalent to 1.3 nmol/min/ml and would result in a value 4% below the true one for an enzyme activity of 34 nmol/min/ml, which is in the normal range. To avoid spuriously high blanks due to base catalyzed hydrolysis, addition of NaOH to the blank, followed by enzyme, was made at the same time that NaOH was added to terminate the enzymatic reaction of the reacted samples.

[5] = system: angiotensin converting enzyme of rabbit lung; settings: rabbit lung enzyme system; Cushman and Cheung 1971; cited from earlier work
[6] = system: serum angiotensin converting enzyme; assay: Serum angiotensin converting enzyme assay with angiotensin I as substrate; type: biochemical, human
Procedure: Three mg of angiotensin I were dissolved in 10 ml buffer, 0.03125 M NaCl and 0.104 M potassium phosphate, pH 7.5. The optical density (O.D.) of the solution at 275 nM was measured against the buffer. The O.D. of the angiotensin I solution was adjusted to 0.272 by either adding more buffer or solid angiotensin I. Based on a mMolar extintion coefficient of 1.31 at 275 nM, the final concentration in the assay was 0.2 mM angiotensin I which is about 4-5 times the Km of this enzyme previously measured. Two hundred forty μl of the angiotensin I solution were added to each tube, then warmed to 37° C. […] of serum were added to each tube, sealed and incubated for 1 hour. […]
For fluorescence development, 100 μl of 2% o-phthaldialdehyde in methanol were added to each tube and mixed with a vortex mixer. […] The fluorescence was read in a 1 cm rectangular fluorescence cuvette in a Perkin-Elmer MPF-4 fluorimeter with a 4 mm entrance and 8 mm exit slit and a 7.5 V energy output between 30-90 minutes after the addition of HCl, during which time the fluorescence was stable. The excitation wavelength was […] and the emission fluorescence wavelength was […].
Calculation of enzymatic activity in nmoles L-histidyl-L-leucine released/min/ml of serum was calculated as follows: Angiotensin converting enzyme activity, nmole his-leu released/min/ml serum = [formula]

For CC(C)C[C@H](NC(=O)[C@@H](N)Cc1c[nH]cn1)C(=O)O [L-histidyl-L-leucine] (H-His-Leu-OH), the Km [1] is listed as 160 µM and the Km [2] is listed as 200 µM.

With CC(C)C[C@H](NC(=O)[C@H](Cc1c[nH]cn1)NC(=O)CNC(=O)c1ccccc1)C(=O)O [hippuryl-L-histidyl-L-leucine, Hippuryl-L-histidyl-L-leucine] (Bz-Gly-His-Leu-OH) the “Substrate concentration at maximum activity” value [3] was 5 mM, the “Substrate concentration at which inhibition was noted” value [3] was 15 mM and the “Increase in fluorescence intensity of the blank, as equivalent enzyme activity (base-catalyzed hydrolysis)” value [4] was 1.3 nmol/min/mL. For the same compound, the Km [5] was 2.6 mM and the “Substrate concentration above which inhibition was present” value [5] was “above 10 mM”.

With “angiotensin I (DRVYIHPFHL; Angiotensin-1; UniProt P01019 25-34, looked up) [decapeptide natural substrate of angiotensin converting enzyme]” the “Activity as substrate compared with hippuryl-L-histidyl-L-leucine” value [6] was “considerably lower”.
